In PubChem BioAssay (NCI):
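Cultured in 96-well plates, cells were exposed to test compound for 48 hours across five concentrations. Definition used: TGI = concentration required for complete inhibition of growth.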

Experiments:
Experiment in all cases: NCI-60 cell line screen, 48 h
SF-268 CNS = test system: SF-268 CNS
SW-620 colon = test system: SW-620 colon
NCI-H460 lung = test system: NCI-H460 lung
SK-MEL-5 melanoma = test system: SK-MEL-5 melanoma
SN12C renal = test system: SN12C renal
NCI-H226 lung = test system: NCI-H226 lung
OVCAR-3 ovarian = test system: OVCAR-3 ovarian
RXF 393 renal = test system: RXF 393 renal
MDA-MB-231 breast = test system: MDA-MB-231 breast
K-562 leukemia = test system: K-562 leukemia
MDA-N = test system: MDA-N
U251 CNS = test system: U251 CNS
HCT-15 colon = test system: HCT-15 colon
UO-31 renal = test system: UO-31 renal
MOLT-4 leukemia = test system: MOLT-4 leukemia
SNB-75 CNS = test system: SNB-75 CNS
IGROV1 ovarian = test system: IGROV1 ovarian
SNB-19 CNS = test system: SNB-19 CNS
HT29 colon = test system: HT29 colon
M14 melanoma = test system: M14 melanoma
CCRF-CEM leukemia = test system: CCRF-CEM leukemia
KM12 colon = test system: KM12 colon
MDA-MB-435 = test system: MDA-MB-435
SR leukemia = test system: SR leukemia
CAKI-1 renal = test system: CAKI-1 renal
BT-549 breast = test system: BT-549 breast
NCI-H23 lung = test system: NCI-H23 lung
EKVX NSCLC = test system: EKVX NSCLC
SK-MEL-2 melanoma = test system: SK-MEL-2 melanoma
COLO 205 colon = test system: COLO 205 colon
SF-539 CNS = test system: SF-539 CNS
OVCAR-5 ovarian = test system: OVCAR-5 ovarian
DU-145 prostate = test system: DU-145 prostate
UACC-62 melanoma = test system: UACC-62 melanoma
UACC-257 melanoma = test system: UACC-257 melanoma
SF-295 CNS = test system: SF-295 CNS
ACHN renal = test system: ACHN renal
A549 NSCLC = test system: A549 NSCLC
TK-10 renal = test system: TK-10 renal
HCT-116 colon = test system: HCT-116 colon
SK-OV-3 ovarian = test system: SK-OV-3 ovarian
OVCAR-4 ovarian = test system: OVCAR-4 ovarian
HOP-62 NSCLC = test system: HOP-62 NSCLC
NCI-H522 lung = test system: NCI-H522 lung
MCF7 breast = test system: MCF7 breast
T-47D breast = test system: T-47D breast
PC-3 prostate = test system: PC-3 prostate
786-0 renal = test system: 786-0 renal
SK-MEL-28 melanoma = test system: SK-MEL-28 melanoma
NCI/ADR-RES ovarian = test system: NCI/ADR-RES ovarian
LOX IMVI melanoma = test system: LOX IMVI melanoma
A498 renal = test system: A498 renal
MALME-3M melanoma = test system: MALME-3M melanoma
HOP-92 NSCLC = test system: HOP-92 NSCLC
OVCAR-8 ovarian = test system: OVCAR-8 ovarian
RPMI-8226 leukemia = test system: RPMI-8226 leukemia
HCC-2998 colon = test system: HCC-2998 colon
HL-60(TB) leukemia = test system: HL-60(TB) leukemia

In the case of `CC(C)=CCC/C(C)=C/CCC(C(=O)COCc1ccccc1)P1(=O)OC(C)(C)CN1C(C)(C)C` (configuration not stated), the TGI (SF-268 CNS) is reported as > 100 µM, the TGI (SW-620 colon) is reported as > 100 µM and the TGI (NCI-H460 lung) is reported as > 100 µM. For the same compound, the TGI (SK-MEL-5 melanoma) was > 100 µM, the TGI (SN12C renal) was > 100 µM and the TGI (NCI-H226 lung) was > 100 µM. The TGI (OVCAR-3 ovarian) was > 100 µM, the TGI (RXF 393 renal) was > 100 µM and the TGI (MDA-MB-231 breast) was > 100 µM. For the same compound, the TGI (K-562 leukemia) was 73.9 µM, the TGI (MDA-N) was > 100 µM and the TGI (U251 CNS) was > 100 µM. The TGI (HCT-15 colon) was > 100 µM, the TGI (UO-31 renal) was > 100 µM and the TGI (MOLT-4 leukemia) was 38.6 µM. For the same compound, the TGI (SNB-75 CNS) was > 100 µM, the TGI (IGROV1 ovarian) was > 100 µM and the TGI (SNB-19 CNS) was > 100 µM. For the same compound, the TGI (HT29 colon) was > 100 µM, the TGI (M14 melanoma) was > 100 µM and the TGI (CCRF-CEM leukemia) was 93.7 µM. For the same compound, the TGI (KM12 colon) was > 100 µM, the TGI (MDA-MB-435) was > 100 µM and the TGI (SR leukemia) was 46.5 µM. For the same compound, the TGI (CAKI-1 renal) was > 100 µM, the TGI (BT-549 breast) was > 100 µM and the TGI (NCI-H23 lung) was > 100 µM. For the same compound, the TGI (EKVX NSCLC) was > 100 µM, the TGI (SK-MEL-2 melanoma) was > 100 µM and the TGI (COLO 205 colon) was > 100 µM. For the same compound, the TGI (SF-539 CNS) was > 100 µM, the TGI (OVCAR-5 ovarian) was > 100 µM and the TGI (DU-145 prostate) was > 100 µM. For the same compound, the TGI (UACC-62 melanoma) was > 100 µM, the TGI (UACC-257 melanoma) was > 100 µM and the TGI (SF-295 CNS) was > 100 µM. The TGI (ACHN renal) was > 100 µM, the TGI (A549 NSCLC) was > 100 µM and the TGI (TK-10 renal) was > 100 µM. The TGI (HCT-116 colon) was > 100 µM, the TGI (SK-OV-3 ovarian) was > 100 µM and the TGI (OVCAR-4 ovarian) was 81.2 µM. For the same compound, the TGI (HOP-62 NSCLC) was > 100 µM, the TGI (NCI-H522 lung) was > 100 µM and the TGI (MCF7 breast) was > 100 µM. For the same compound, the TGI (T-47D breast) was > 100 µM, the TGI (PC-3 prostate) was > 100 µM and the TGI (786-0 renal) was > 100 µM. For the same compound, the TGI (SK-MEL-28 melanoma) was > 100 µM, the TGI (NCI/ADR-RES ovarian) was > 100 µM and the TGI (LOX IMVI melanoma) was > 100 µM.

With `COc1ccc2c(c1)OCC1Cc3cc4c(cc3OC21)OCO4` (configuration not stated) the TGI (SF-268 CNS) was > 100 µM, the TGI (SW-620 colon) was > 100 µM and the TGI (SK-MEL-5 melanoma) was 57.2 µM. The TGI (A498 renal) was > 100 µM, the TGI (SN12C renal) was > 100 µM and the TGI (NCI-H226 lung) was > 100 µM. For the same compound, the TGI (OVCAR-3 ovarian) was > 100 µM, the TGI (MDA-MB-231 breast) was > 100 µM and the TGI (K-562 leukemia) was > 100 µM. The TGI (MDA-N) was 13.8 µM, the TGI (U251 CNS) was > 100 µM and the TGI (HCT-15 colon) was > 100 µM. For the same compound, the TGI (UO-31 renal) was > 100 µM, the TGI (MOLT-4 leukemia) was > 100 µM and the TGI (IGROV1 ovarian) was > 100 µM. For the same compound, the TGI (MALME-3M melanoma) was > 100 µM, the TGI (SNB-19 CNS) was > 100 µM and the TGI (HT29 colon) was > 100 µM. The TGI (M14 melanoma) was > 100 µM, the TGI (CCRF-CEM leukemia) was > 100 µM and the TGI (KM12 colon) was > 100 µM. The TGI (HOP-92 NSCLC) was > 100 µM, the TGI (MDA-MB-435) was 34.7 µM and the TGI (SR leukemia) was > 100 µM. For the same compound, the TGI (CAKI-1 renal) was > 100 µM, the TGI (OVCAR-8 ovarian) was > 100 µM and the TGI (BT-549 breast) was > 100 µM. For the same compound, the TGI (NCI-H23 lung) was > 100 µM, the TGI (RPMI-8226 leukemia) was > 100 µM and the TGI (EKVX NSCLC) was > 100 µM. For the same compound, the TGI (SK-MEL-2 melanoma) was 86.9 µM, the TGI (COLO 205 colon) was > 100 µM and the TGI (SF-539 CNS) was > 100 µM. For the same compound, the TGI (OVCAR-5 ovarian) was > 100 µM, the TGI (DU-145 prostate) was > 100 µM and the TGI (UACC-62 melanoma) was > 100 µM. The TGI (UACC-257 melanoma) was > 100 µM, the TGI (SF-295 CNS) was > 100 µM and the TGI (ACHN renal) was > 100 µM. The TGI (A549 NSCLC) was > 100 µM, the TGI (TK-10 renal) was 81.1 µM and the TGI (HCT-116 colon) was > 100 µM. The TGI (SK-OV-3 ovarian) was > 100 µM, the TGI (HOP-62 NSCLC) was > 100 µM and the TGI (NCI-H522 lung) was > 100 µM. For the same compound, the TGI (MCF7 breast) was > 100 µM, the TGI (HCC-2998 colon) was > 100 µM and the TGI (T-47D breast) was > 100 µM. The TGI (PC-3 prostate) was > 100 µM, the TGI (786-0 renal) was > 100 µM and the TGI (NCI/ADR-RES ovarian) was > 100 µM. For the same compound, the TGI (LOX IMVI melanoma) was 52.4 µM.

For `COc1ccc(N[C@H]([C@@H](c2ccccc2)S(=O)c2ccc(C)cc2)C(F)(F)F)cc1` (some centres not stated), the TGI (SW-620 colon) was > 100 µM, the TGI (NCI-H460 lung) was > 100 µM and the TGI (SK-MEL-5 melanoma) was > 100 µM. The TGI (SN12C renal) was > 100 µM, the TGI (NCI-H226 lung) was > 100 µM and the TGI (OVCAR-3 ovarian) was > 100 µM. The TGI (RXF 393 renal) was > 100 µM, the TGI (MDA-MB-231 breast) was > 100 µM and the TGI (K-562 leukemia) was > 100 µM. The TGI (MDA-N) was > 100 µM, the TGI (U251 CNS) was 50.2 µM and the TGI (HCT-15 colon) was > 100 µM. The TGI (UO-31 renal) was > 100 µM, the TGI (MOLT-4 leukemia) was > 100 µM and the TGI (SNB-75 CNS) was > 100 µM. For the same compound, the TGI (IGROV1 ovarian) was > 100 µM, the TGI (MALME-3M melanoma) was > 100 µM and the TGI (SNB-19 CNS) was > 100 µM. The TGI (HT29 colon) was > 100 µM, the TGI (M14 melanoma) was > 100 µM and the TGI (CCRF-CEM leukemia) was 66.6 µM. The TGI (KM12 colon) was > 100 µM, the TGI (HOP-92 NSCLC) was > 100 µM and the TGI (MDA-MB-435) was > 100 µM. For the same compound, the TGI (SR leukemia) was > 100 µM, the TGI (CAKI-1 renal) was > 100 µM and the TGI (OVCAR-8 ovarian) was > 100 µM. For the same compound, the TGI (BT-549 breast) was > 100 µM, the TGI (NCI-H23 lung) was > 100 µM and the TGI (EKVX NSCLC) was > 100 µM. The TGI (SK-MEL-2 melanoma) was > 100 µM, the TGI (COLO 205 colon) was > 100 µM and the TGI (SF-539 CNS) was 63.2 µM. The TGI (OVCAR-5 ovarian) was > 100 µM, the TGI (DU-145 prostate) was > 100 µM and the TGI (UACC-62 melanoma) was > 100 µM. The TGI (UACC-257 melanoma) was > 100 µM, the TGI (SF-295 CNS) was > 100 µM and the TGI (ACHN renal) was > 100 µM. For the same compound, the TGI (A549 NSCLC) was > 100 µM, the TGI (TK-10 renal) was > 100 µM and the TGI (HCT-116 colon) was > 100 µM. The TGI (SK-OV-3 ovarian) was > 100 µM, the TGI (OVCAR-4 ovarian) was 79.5 µM and the TGI (HL-60(TB) leukemia) was 73.7 µM. The TGI (NCI-H522 lung) was > 100 µM, the TGI (MCF7 breast) was > 100 µM and the TGI (HCC-2998 colon) was > 100 µM. For the same compound, the TGI (T-47D breast) was > 100 µM, the TGI (PC-3 prostate) was > 100 µM and the TGI (786-0 renal) was > 100 µM. For the same compound, the TGI (SK-MEL-28 melanoma) was > 100 µM, the TGI (NCI/ADR-RES ovarian) was > 100 µM and the TGI (LOX IMVI melanoma) was > 100 µM.
